≈ marks a conversion by molar mass, not a printed value. Read-outs that look alike come from different tables or passages of the source.
Assays:
[1] = system: Staphylococcus aureus MSSA CIP 4.83; test: Antibacterial activity (MIC/MBC); type: cell-based; conditions: for MBC: read-out: MBC
[2] = system: S. pneumoniae PSSP CIP 6.92; test: Antibacterial activity (MIC/MBC); type: cell-based; conditions: Streptococcus pneumoniae, CIP6
[3] = system: S. pneumoniae PRSP CIP 104471; test: Antibacterial activity (MIC/MBC); type: cell-based, Streptococcus pneumoniae; conditions: Streptococcus pneumoniae; for MIC: read-out: MIC
[4] = system: S. pneumoniae PRSP clinical isolate; test: Antibacterial activity (MIC/MBC); type: cell-based, Streptococcus pneumoniae; conditions: Streptococcus pneumoniae; for MIC: PRSP
[5] = system: S. pyogenes CIP 56.41T; test: Antibacterial activity (MIC/MBC); type: cell-based, Streptococcus pyogenes; conditions: Streptococcus pyogenes, CIP56, S. pyogenes CIP 56.41T; for MIC: read-out: MIC
[6] = system: E. faecalis VRE CIP 104676; test: Antibacterial activity (MIC/MBC); type: cell-based, Enterococcus faecalis; conditions: Enterococcus faecalis, E. faecalis VRE CIP 104676
[7] = system: H. influenzae CIP 102514; test: Antibacterial activity (MIC/MBC); type: cell-based, Haemophilus influenzae; conditions: Haemophilus influenzae, CIP102514
[8] = system: M. catarrhalis CIP73.21T; test: Antibacterial activity (MIC/MBC); type: cell-based; conditions: Moraxella catarrhalis
[9] = system: Staphylococcus aureus MSSA 53.154; test: Murine experimental septicaemia, in vivo efficacy; parameters: species or system mice; conditions: sc, mice, subcutaneously at 1 and 6 h post infection, survival on day 9, hybrid molecules formulated in water as their sodium salt, read-out: ED50
Protocol: Experimental septicaemia was induced in mice as follows. Briefly, male Swiss OF1 mice (IFFA CREDO-Charles River) weighing 18 to 20 grams were infected intraperitoneally with 0.5 mL of a bacterial suspension containing 8.5×10^7 cfu of Staphylococcus aureus MSSA 53.154 (Institut Pasteur). The hybrid molecules were administered subcutaneously at 1 and 6 h post infection. Control and treatment groups at each dose were composed of seven mice. All the infected but untreated control mice died within 9 days. The 50% effective dose (ED50) values were calculated by a computerized program (GraphPad) from the survival rates on day 9 after infection.

[10] = Oral toxicity in mice; type: in vivo; conditions: counted on day 30
Protocol: The test compound: PA 1046 (example 5) was emulsified in a mixture of Tween 80/methylcellulose in water (0.5% of Tween 80, 0.6% of methylcellulose and 98.9% of water) at different concentrations. The emulsion was administered orally to 6-week-old female Swiss CD1 mice (Janvier) on day 0 and on day 2. The number of survival mice was counted on day 30.

[11] = system: Human lung fibroblast cells (ATCC CCL-171); test: Cytotoxicity (MTT) assay; conditions: human, 18 hr
Protocol: Cellular toxicity was measured by a colorimetric assay that makes use of the tetrazolium salt, MTT. Human lung fibroblast cells (ATCC CCL-171) were plated in 96-well plates at 10^4 cells per well and incubated under 5% CO2 at 37° C. for 24 hr to allow adherence of cells to the plate. Test compounds were prepared as a stock solution at 1 mg/mL in 1% DMSO/water and diluted with water for the serial dilutions (500-7.8 μg/mL). Cells underwent a 18 hr treatment under 5% CO2 at 37° C. with experimental drugs. Corresponding controls received either no drug treatment or treatment with SDS (sodium dodecyl sulfate). The optical density of each sample was read on a microplate spectrophotometer reader at 600 nm and cell survival was expressed as a fraction of that of untreated controls. A drug is said cytotoxic when this fraction is ≦−30%

[12] = system: S. aureus MRSA clinical isolate; test: Antibacterial activity (MIC); type: cell-based, Staphylococcus aureus; conditions: Staphylococcus aureus; S. aureus MRSA clinical isolate; read-out: MIC
[13] = system: S. pneumoniae PSSP CQI 201; test: Antibacterial activity (MIC); type: cell-based, Streptococcus pneumoniae; conditions: for MIC: Streptococcus pneumoniae, S. pneumoniae PSSP CQI 201, read-out: MIC
[14] = system: S. pneumoniae mefE; test: Antibacterial activity (MIC); type: cell-based; conditions: Streptococcus pneumoniae; S. pneumoniae mefE (macrolide-resistant by efflux)
[15] = system: B. fragilis API 7716; test: Antibacterial activity (MIC); type: cell-based; conditions: Bacteroides fragilis, API7716
[16] = Stability in solution at pH 1 (HPLC purity over time); type: physicochemical; conditions: for Purity of the hybrid molecules (as a percentage) as a function of time (hours): pH 1, 37° C.
Protocol: The stability of the aminoquinoline-cephalosporin_hybrid molecules given as examples was determined in solution at 37° C., at physiological pH (pH 7, phosphate buffer/acetonitrile, 75/25 v/v) and at acidic pH (pH 1, 0.1 M HCl/ethanol, 70/30 v/v) by high pressure liquid chromatography coupled to a UV-visible detector (Beckman Coulter ODS C18 column, 5 μm, 4.6×250 mm; eluents: A: 0.1% TFA, B: CH3CN/H2O 90/10 0.1% TFA, gradient: from 10% to 100% of B in 30 minutes, and then 100% of B for 10 minutes, flow rate 1 mL/minutes, λ=254 nm, volume injected: 10 μL).

[17] = system: two strains of penicillin-resistant Streptococcus pneumoniae PRSP (CIP 104471 and a clinical isolate); test: Antibacterial activity (MIC/MBC), summary in text; type: cell-based; conditions: S. pneumoniae PRSP (CIP 104471 and a clinical isolate)
[18] = S. aureus CIP 4.83, without serum (Table VI)
[19] = Staphylococcus aureus, S. aureus CIP 4.83, +50% human serum, read-out: MIC in the presence of human serum
[20] = Staphylococcus aureus, S. aureus MSSA CIP 4.83
[21] = Staphylococcus aureus, S. aureus MSSA CIP 4.83, read-out: MIC
[22] = +50% human serum, read-out: MIC in the presence of human serum
[23] = without serum (Table VI), read-out: MIC

CC(=O)OCC1=C(C(=O)O)N2C(=O)[C@@H](NC(=O)CNc3ccnc4cc(Cl)ccc34)[C@H]2SC1 [PA 1046, (6R,7R)-3-Acetoxymethyl-7-[2-(7-chloroquinolin-4-ylamino)-acetylamino]-8-oxo-5-thia-1-aza-bicyclo[4.2.0]oct-2-ene-2-carboxylic acid]
MIC [1, 18]: 0.2 µg/mL (≈ 0.407 µM) | MIC [1, 19]: 0.78 µg/mL | MBC [1, 20]: > 50 µg/mL | MIC [1, 21]: 0.2 µg/mL (≈ 0.407 µM) | MBC [2]: 0.012 µg/mL (≈ 0.0244 µM) | MIC [2]: 0.012 µg/mL (≈ 0.0244 µM) | MBC [3]: 0.025 µg/mL (≈ 0.0509 µM) | MIC [3]: 0.006 µg/mL (≈ 0.0122 µM) | MBC [4]: 0.1 µg/mL (≈ 0.204 µM) | MIC [4, 22]: 1.56 µg/mL | MIC ([4]; read-out: MIC): 0.05 µg/mL (≈ 0.102 µM) | MIC [4, 23]: 0.2 µg/mL (≈ 0.407 µM) | MBC [5]: 0.003 µg/mL (≈ 0.00611 µM) | MIC [5]: 0.003 µg/mL (≈ 0.00611 µM) | MBC [6]: 50 µg/mL (≈ 102 µM) | MBC [7]: 25 µg/mL (≈ 50.9 µM) | MBC [8]: 0.78 µg/mL (≈ 1.59 µM) | MIC [8]: 0.78 µg/mL (≈ 1.59 µM) | ED50 [9]: 0.04 mg/kg | Survival (%) ([10]; 100 mg/kg orally on day 0 and day 2, mice): 5/5 (100%) | Survival (%) ([10]; 200 mg/kg orally on day 0 and day 2, mice): 5/5 (100%) | % of survival cells compared to the untreated controls ([11]; 7.8 μg/mL): −5.6% | % of survival cells compared to the untreated controls ([11]; 15.6 μg/mL): −8.3% | % of survival cells compared to the untreated controls ([11]; 31.2 μg/mL): −5.6% | % of survival cells compared to the untreated controls ([11]; 62.5 μg/mL): −9.0% | % of survival cells compared to the untreated controls ([11]; 125 μg/mL): −14.1% | % of survival cells compared to the untreated controls ([11]; 250 μg/mL): −17.8% | % of survival cells compared to the untreated controls ([11]; 500 μg/mL): −18.1%

CC[C@H]1OC(=O)[C@H](C)[C@@H](O[C@H]2C[C@@](C)(OC)[C@@H](O)[C@H](C)O2)[C@H](C)[C@@H](O[C@@H]2O[C@H](C)C[C@H](N(C)C)[C@H]2O)[C@](C)(O)C[C@@H](C)C(=O)[C@H](C)[C@@H](O)[C@]1(C)O [Erythromycin, reference compound]
MIC [1, 21]: 0.156 µg/mL (≈ 0.213 µM) | MIC [12]: 0.156 µg/mL (≈ 0.213 µM) | MIC [13]: 0.039 µg/mL (≈ 0.0531 µM) | MIC ([4]; read-out: MIC): > 5 µg/mL | MIC [14]: 5 µg/mL (≈ 6.81 µM) | MIC [5]: 0.039 µg/mL (≈ 0.0531 µM)

CC[C@@H]1OC(=O)[C@H](C)[C@H](OC2CC(C)(OC)C(O)C(C)O2)[C@@H](C)[C@@H](OC2OC(C)CC(N(C)C)C2O)[C@](C)(O)C[C@@H](C)/C(=N\OCCCNc2ccnc3cc(Cl)ccc23)[C@@H](C)[C@H](O)[C@]1(C)O (stereo partly shown) [PA 1169, 10{O-[3-(7-Chloroquinolin-4-ylamino)-propyl]-oxime}-erythromycin]
MIC [1, 21]: 0.156 µg/mL (≈ 0.161 µM) | MIC [12]: 0.31 µg/mL (≈ 0.32 µM) | gain in activity (factor) ([13]; Streptococcus pneumoniae PSSP, versus macrolide residue): 8 | MIC [13]: 0.005 µg/mL (≈ 0.00517 µM) | MIC ([4]; read-out: MIC): > 5 µg/mL | MIC [14]: 1.25 µg/mL (≈ 1.29 µM) | MIC [5]: 0.078 µg/mL (≈ 0.0806 µM)

Cc1ncc([N+](=O)[O-])n1CCNc1ccnc2cc(C(F)(F)F)ccc12 [PA 1130, [2-(2-Methyl-5-nitroimidazol-1-yl)-ethyl]-(7-trifluoromethylquinolinyl-4-yl)-amine]
MIC [15]: 3.12 µg/mL (≈ 8.54 µM)

Cc1ncc([N+](=O)[O-])n1CCNc1ccnc2cc(Cl)ccc12 [PA 1129, (7-Chloroquinolin-4-yl)-[2-(2-methyl-5-nitroimidazol-1-yl)-ethyl]-amine]
MIC [15]: 0.78 µg/mL (≈ 2.35 µM)

CO/N=C(\C(=O)N[C@@H]1C(=O)N2C(C(=O)O)=C(CSc3nc(=O)c(=O)[nH]n3C)CS[C@H]12)c1csc(N)n1 [Ceftriaxone, reference compound]
half-life ([16]; 0.1 M HCl/ethanol solution, pH 1 in solution at 37° C.): < 2 h | Purity of the hybrid molecules (as a percentage) as a function of time (hours) ([16]; time 0 h): 100% | Purity of the hybrid molecules (as a percentage) as a function of time (hours) ([16]; time 1 h): 67% | Purity of the hybrid molecules (as a percentage) as a function of time (hours) ([16]; time 2 h): 46% | Purity of the hybrid molecules (as a percentage) as a function of time (hours) ([16]; time 4 h): 21% | Purity of the hybrid molecules (as a percentage) as a function of time (hours) ([16]; time 6 h): 4% | time until practically totally degraded ([16]; pH 1 in solution at 37° C.): less than 6 hr | MIC [1, 18]: 0.20 µg/mL (≈ 0.361 µM) | MIC [1, 19]: 25 µg/mL | MBC [1, 20]: > 50 µg/mL | MIC [1, 21]: 0.2 µg/mL (≈ 0.361 µM) | MBC [2]: 0.006 µg/mL (≈ 0.0108 µM) | MIC [2]: 0.006 µg/mL (≈ 0.0108 µM) | MBC [3]: 0.39 µg/mL (≈ 0.703 µM) | MIC [3]: 0.05 µg/mL (≈ 0.0902 µM) | MBC [4]: 0.78 µg/mL (≈ 1.41 µM) | MIC [4, 22]: 12.5 µg/mL | MIC ([4]; read-out: MIC): 0.39 µg/mL (≈ 0.703 µM) | MIC [4, 23]: 0.78 µg/mL (≈ 1.41 µM) | MBC [5]: 0.006 µg/mL (≈ 0.0108 µM) | MIC [5]: 0.006 µg/mL (≈ 0.0108 µM) | MBC [6]: 50 µg/mL (≈ 90.2 µM) | MIC ([6]; read-out: MIC): 1.56 µg/mL (≈ 2.81 µM) | MBC ([7]; H. influenzae CIP 102514, read-out: MBC): 1.56 µg/mL (≈ 2.81 µM) | MIC ([7]; H. influenzae CIP 102514, read-out: MIC): < 0.001 µg/mL | MBC [8]: 0.0015 µg/mL (≈ 0.0027 µM) | MIC [8]: < 0.01 µg/mL | ED50 [9]: 0.09 mg/kg | MIC [17]: 0.05 µg/mL (≈ 0.0902 µM)

Cc1ncc([N+](=O)[O-])n1CCO [Metronidazole, reference compound]
MIC [15]: 0.2 µg/mL (≈ 1.17 µM)

— US20070060558A1 (PALUMED S.A., priority 2004, published 2007)
